Results from patent US20200399243A1, “NOVEL COMPOUNDS” (Inflazome Limited, priority 2018, published 2020).
Where a name gives a salt, the structure may show the parent alone.

The molecules below were run against T1, NLRP3 (Homo sapiens, UniProt Q96P20) (assay: THP-1 cells pyroptosis assay). Conditions: 1.0 μg/ml LPS, compound 3 hrs, nigericin 5 μM 1 hr, resazurin readout.
T1 construct: Seed THP-1 cells (25,000 cells/well) containing 1.0 μg/ml LPS in 40 μl of RPMI medium; host or cells: THP-1 cells
T1 sequence (Q96P20 whole entry): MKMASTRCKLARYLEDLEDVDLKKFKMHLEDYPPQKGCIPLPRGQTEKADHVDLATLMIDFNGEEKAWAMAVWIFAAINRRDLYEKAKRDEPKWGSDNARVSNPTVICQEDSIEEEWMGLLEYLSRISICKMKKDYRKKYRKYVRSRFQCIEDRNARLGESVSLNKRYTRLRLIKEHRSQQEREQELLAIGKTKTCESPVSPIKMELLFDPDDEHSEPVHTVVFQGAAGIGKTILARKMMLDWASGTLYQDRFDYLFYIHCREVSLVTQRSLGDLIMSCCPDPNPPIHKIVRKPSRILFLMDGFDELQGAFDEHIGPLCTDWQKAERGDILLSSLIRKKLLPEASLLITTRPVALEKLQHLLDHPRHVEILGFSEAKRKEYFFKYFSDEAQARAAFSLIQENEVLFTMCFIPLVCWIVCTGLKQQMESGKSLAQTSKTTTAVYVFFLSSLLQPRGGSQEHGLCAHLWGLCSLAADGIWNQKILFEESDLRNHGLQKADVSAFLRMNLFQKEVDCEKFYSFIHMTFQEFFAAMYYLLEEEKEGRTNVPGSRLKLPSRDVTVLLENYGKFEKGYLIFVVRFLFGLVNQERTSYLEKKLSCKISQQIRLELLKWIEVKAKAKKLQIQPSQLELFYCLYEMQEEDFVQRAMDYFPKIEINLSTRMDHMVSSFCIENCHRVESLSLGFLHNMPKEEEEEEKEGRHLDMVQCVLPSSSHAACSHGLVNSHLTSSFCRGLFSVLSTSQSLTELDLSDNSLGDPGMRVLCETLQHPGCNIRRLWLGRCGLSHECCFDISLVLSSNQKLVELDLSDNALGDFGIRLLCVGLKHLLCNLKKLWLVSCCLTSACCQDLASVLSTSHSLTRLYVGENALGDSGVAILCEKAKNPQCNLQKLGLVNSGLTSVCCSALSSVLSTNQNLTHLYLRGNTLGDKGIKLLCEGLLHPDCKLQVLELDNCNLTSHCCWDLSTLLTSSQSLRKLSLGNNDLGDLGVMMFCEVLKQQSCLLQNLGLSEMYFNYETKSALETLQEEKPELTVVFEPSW
Type: cell-based
Procedure: THP-1 cells (ATCC # TIB-202) were grown in RPMI containing L-glutamine (Gibco #11835) supplemented with 1 mM sodium pyruvate (Sigma # S8636) and penicillin (100 units/ml)/streptomycin (0.1 mg/ml) (Sigma # P4333) in 10% Fetal Bovine Serum (FBS) (Sigma # F0804). The cells were routinely passaged and grown to confluency (˜10^6 cells/ml). On the day of the experiment, THP-1 cells were harvested and resuspended into RPMI medium (without FBS). The cells were then counted and viability (>90%) checked by Trypan blue (Sigma # T8154). Appropriate dilutions were made to give a concentration of 625,000 cells/ml. To this diluted cell solution was added LPS (Sigma # L4524) to give a 1 μg/ml Final Assay Concentration (FAC). 40 μl of the final preparation was aliquoted into each well of a 96-well plate. The plate thus prepared was used for compound screening. The following method step-by-step assay was followed for compound screening. • 1. Seed THP-1 cells (25,000 cells/well) containing 1.0 μg/ml LPS in 40 μl of RPMI medium (without FBS) in 96-well, black walled, clear bottom cell culture plates coated with poly-D-lysine (VWR #734-0317) • 2. Add 5 μl compound (8 points half-log dilution, with 10 μM top dose) or vehicle (DMSO 0.1% FAC) to the appropriate wells • 3. Incubate for 3 hrs at 37° C., 5% CO2 • 4. Add 5 μl nigericin (Sigma # N7143) (FAC 5 μM) to all wells • 5. Incubate for 1 hr at 37° C., 5% CO2 • 6. At the end of the incubation period, spin plates at 300×g for 3 mins and remove supernatant 7. Then add 50 μl of resazurin (Sigma # R7017) (FAC 100 μM resazurin in RPMI medium without FBS) and incubate plates for a further 1-2 hrs at 37° C. and 5% CO2 • 8. Plates were read in an Envision reader at Ex 560 nm and Em 590 nm • 9. IC50 data is fitted to a non-linear regression equation (log inhibitor vs response-variable slope 4-parameters) The results of the pyroptosis assay are summarised in Table 2 below as THP IC50.

CC(C)n1nc(S(=O)(=O)NC(=O)Cc2c3c(cc4c2CCC4)CCC3)cc1CN(C)C [Example 1, N-((5-((Dimethylamino)methyl)-1-isopropyl-1H-pyrazol-3-yl)sulfonyl)-2-(1,2,3,5,6,7-hexahydro-s-indacen-4-yl)acetamide] and CC(c1cc(S(=O)(=O)NC(=O)Cc2c3c(cc4c2CCC4)CCC3)nn1C(C)C)N(C)C (stereo not drawn) [Example 3, N-((5-(1-(Dimethylamino)ethyl)-1-isopropyl-1H-pyrazol-3-yl)sulfonyl)-2-(1,2,3,5,6,7-hexahydro-s-indacen-4-yl)acetamide] fall in the same range of IC50: 1 to 5 µM for the first, 1 to 5 µM for the second.

CC(C)c1cc(F)cc(C(C)C)c1CC(=O)NS(=O)(=O)c1cc(C(=O)N(C)C)n(C)n1 [Example 2, 3-(N-(2-(4-Fluoro-2,6-diisopropylphenyl)acetyl)sulfamoyl)-N,N,1-trimethyl-1H-pyrazole-5-carboxamide] and CC(C)c1cc(F)cc(-c2cccnc2)c1CC(=O)NS(=O)(=O)c1cc(C(=O)N(C)C)n(C)n1 [Example 5, 3-(N-(2-(4-Fluoro-2-isopropyl-6-(pyridin-3-yl)phenyl)acetyl)sulfamoyl)-N,N,1-trimethyl-1H-pyrazole-5-carboxamide] fall in the same range of IC50: 1 to 5 µM for the first, 1 to 5 µM for the second.

COc1cc(-c2cc(F)cc(C(C)C)c2CC(=O)NS(=O)(=O)c2cc(C(=O)N(C)C)n(C)n2)ccn1 [Example 4, 3-(N-(2-(4-Fluoro-2-isopropyl-6-(2-methoxypyridin-4-yl)phenyl)acetyl)sulfamoyl)-N,N,1-trimethyl-1H-pyrazole-5-carboxamide, potassium salt] and COc1cc(-c2cc(F)cc(C(C)C)c2CC(=O)NS(=O)(=O)c2cc(CN(C)C)n(C)n2)ccn1 [Example 8, N-((5-((Dimethylamino)methyl)-1-methyl-1H-pyrazol-3-yl)sulfonyl)-2-(4-fluoro-2-isopropyl-6-(2-methoxypyridin-4-yl)phenyl) acetamide, potassium salt] cannot be ordered by IC50: ≤ 1 µM for the first, 1 to 5 µM for the second.

CC(C)c1cc(F)cc(-c2ccncc2)c1CC(=O)NS(=O)(=O)c1cc(C(=O)N(C)C)n(C)n1 [Example 6, 3-(N-(2-(4-Fluoro-2-isopropyl-6-(pyridin-4-yl)phenyl)acetyl)sulfamoyl)-N,N,1-trimethyl-1H-pyrazole-5-carboxamide, potassium salt] and CC(C)c1cc(F)cc(-c2ccncc2)c1CC(=O)NS(=O)(=O)c1cc(CN(C)C)n(C)n1 [Example 17, N-((5-((Dimethylamino)methyl)-1-methyl-1H-pyrazol-3-yl)sulfonyl)-2-(4-fluoro-2-isopropyl-6-(pyridin-4-yl)phenyl)acetamide] fall in the same range of IC50: 1 to 5 µM for the first, 1 to 5 µM for the second.

CC(C)c1cc(F)cc(-c2ccncc2)c1CC(=O)NS(=O)(=O)c1ccn(C(C)(C)CN(C)C)n1 [Example 7, N-((1-(1-(Dimethylamino)-2-methylpropan-2-yl)-1H-pyrazol-3-yl)sulfonyl)-2-(4-fluoro-2-isopropyl-6-(pyridin-4-yl)phenyl)acetamide, potassium salt] and COc1cc(-c2cc(F)cc(C(C)C)c2CC(=O)NS(=O)(=O)c2ccn(C(C)(C)CN(C)C)n2)ccn1 [Example 18] fall in the same range of IC50: 1 to 5 µM for the first, 1 to 5 µM for the second.

CC(c1cc(S(=O)(=O)NC(=O)Cc2c3c(cc4c2CCC4)CCC3)nn1C1CC1)N(C)C (stereo not drawn) [Example 9, N-((1-Cyclopropyl-5-(1-(dimethylamino)ethyl)-1H-pyrazol-3-yl)sulfonyl)-2-(1,2,3,5,6,7-hexahydro-s-indacen-4-yl)acetamide] and CC(c1cc(S(=O)(=O)NC(=O)Cc2c3c(cc4c2CCC4)CCC3)nn1C)N(C)C (stereo not drawn) [Example 11, N-((5-(1-(Dimethylamino)ethyl)-1-methyl-1H-pyrazol-3-yl)sulfonyl)-2-(1,2,3,5,6,7-hexahydro-s-indacen-4-yl)acetamide] fall in the same range of IC50: 1 to 5 µM for the first, 1 to 5 µM for the second.

First: CC(C)c1cc(F)cc(C(C)C)c1CC(=O)NS(=O)(=O)c1cc(CN(C)C)n(C2CC2)n1 [Example 10, N-((1-Cyclopropyl-5-((dimethylamino)methyl)-1H-pyrazol-3-yl)sulfonyl)-2-(4-fluoro-2,6-diisopropylphenyl)acetamide]
Second: CC(C)c1cc(F)cc(C(C)C)c1CC(=O)NS(=O)(=O)c1ccn(CCN(C)C)n1 [Example 16, N-((1-(2-(Dimethylamino)ethyl)-1H-pyrazol-3-yl)sulfonyl)-2-(4-fluoro-2,6-diisopropylphenyl)acetamide]
The IC50 of the first is lower: 1 to 5 µM for the first, 5 to 10 µM for the second. The first is the more potent here.

CN(C)C(=O)c1cc(S(=O)(=O)NC(=O)Cc2c3c(cc4c2CCC4)CCC3)nn1C [Example 12, 3-(N-(2-(1,2,3,5,6,7-Hexahydro-s-indacen-4-yl)acetyl)sulfamoyl)-N,N,1-trimethyl-1H-pyrazole-5-carboxamide] and CN(C)CC(C)(C)n1ccc(S(=O)(=O)NC(=O)Cc2c3c(cc4c2CCC4)CCC3)n1 [Example 13, N-((1-(1-(Dimethylamino)-2-methylpropan-2-yl)-1H-pyrazol-3-yl)sulfonyl)-2-(1,2,3,5,6,7-hexahydro-s-indacen-4-yl)acetamide] fall in the same range of IC50: 5 to 10 µM for the first, 5 to 10 µM for the second.

Compared with COc1cc(-c2ccc3c(c2CC(=O)NS(=O)(=O)c2cc(C(=O)N(C)C)n(C)n2)CCC3)ccn1 [Example 14, 3-(N-(2-(5-(2-Methoxypyridin-4-yl)-2,3-dihydro-1H-inden-4-yl)acetyl)sulfamoyl)-N,N,1-trimethyl-1H-pyrazole-5-carboxamide], CN(C)C(=O)c1cc(S(=O)(=O)NC(=O)Cc2c(-c3ccnc(C#N)c3)ccc3c2CCC3)nn1C [Example 15, 3-(N-(2-(5-(2-Cyanopyridin-4-yl)-2,3-dihydro-1H-inden-4-yl)acetyl)sulfamoyl)-N,N,1-trimethyl-1H-pyrazole-5-carboxamide] is lower in IC50: 5 to 10 µM for the first, 1 to 5 µM for the second. The second is the more potent here.
